Experimental data from patent US20250100969A1, “COMPOUND, RUBBER BLEND CONTAINING THE COMPOUND, VEHICLE TIRE COMPRISING THE RUBBER BLEND IN AT LEAST ONE COMPONENT, PROCESS FOR PRODUCING THE COMPOUND, AND USE OF THE COMPOUND AS AN AGE RESISTOR AND/OR ANTIOXIDANT” (Continental Reifen Deutschland GmbH, priority 2021, published 2025).

Experiment: solubility in rubber mixtures
Type: physicochemical
Conditions: in particular for vehicle tires and other technical rubber articles

Compound: CC(C)CC(C)Nc1ccc2[nH]c3ccccc3c2c1 (stereo not shown) [compound according to the invention, N-(1,3-dimethylbutyl)-9H-carbazol-3-amine]
- solubility in rubber mixtures: very good
